Experimental data as given in PubChem BioAssay AID1963451 (Molecular Pharmacology Branch, DTP, NCI, 2024).
“And” between values parts separate entries of the source, which are not always exact repeats. Equal entries are not always repeated.

System: 521955-158-R6-J3-PDC complex spheroid growth, % test/control
Experiment: Anticancer human tumor 521955-158-R6-J3-PDC patient-derived pancreatic carcinoma cell line growth inhibition [Asc]
Conditions: for viability, T/C: stronger effect = lower value
Summary of the method: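 Tumor cells were grown as complex spheroids with human endothelial cells (HUVEC) and human mesenchymal stem cells as stroma. Agents were tested alone and in combination, in half-log steps down from the clinical Cmax, or from 10 microM where Cmax was unknown.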

[1] = curve of first compound, second compound 0.00316 µM
[2] = curve of first compound, second compound 0.01 µM
[3] = curve of first compound, second compound 0.0316 µM
[4] = curve of first compound, second compound 0.1 µM
[5] = curve of first compound, second compound 0.316 µM
[6] = curve of first compound, second compound 1 µM
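Note: spheroids exposed to compounds for 7 days.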
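Throughout, for viability, T/C: 100% = DMSO vehicle control wells.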

Cc1nc(N2CCC3(CC2)COC(C)C3N)c(CO)nc1Sc1ccnc(N)c1Cl (stereo unspecified) + CNC(C)C(=O)NC1CN(S(=O)(=O)c2cccc(S(=O)(=O)N3CCC4CCC(C(=O)NC(c5ccccc5)c5ccccc5)N4C(=O)C(NC(=O)C(C)NC)C3)c2)CCC2CCC(C(=O)NC(c3ccccc3)c3ccccc3)N2C1=O
IC50 [1]: > 3000 nM | IC50 [2]: > 3000 nM | IC50 [3]: > 3000 nM | IC50 [4]: > 3000 nM | IC50 [5]: > 3000 nM | IC50 [6]: > 3000 nM | viability, T/C (second compound 0.00316 µM, first compound 0.00949 µM): 99.5% | viability, T/C (second compound 0.00316 µM, first compound 0.03 µM): 88.7% | viability, T/C (second compound 0.00316 µM, first compound 0.0949 µM): 73.2% | viability, T/C (second compound 0.00316 µM, first compound 0.3 µM): 86.7% | viability, T/C (second compound 0.00316 µM, first compound 0.949 µM): 73.4% | viability, T/C (second compound 0.00316 µM, first compound 3 µM): 55% | viability, T/C (second compound 0.01 µM, first compound 0.00949 µM): 109% | viability, T/C (second compound 0.01 µM, first compound 0.03 µM): 74% | viability, T/C (second compound 0.01 µM, first compound 0.0949 µM): 79.4% | viability, T/C (second compound 0.01 µM, first compound 0.3 µM): 87.7% | viability, T/C (second compound 0.01 µM, first compound 0.949 µM): 69.9% | viability, T/C (second compound 0.01 µM, first compound 3 µM): 57.9% | viability, T/C (second compound 0.0316 µM, first compound 0.00949 µM): 90% | viability, T/C (second compound 0.0316 µM, first compound 0.03 µM): 83.1% | viability, T/C (second compound 0.0316 µM, first compound 0.0949 µM): 81.1% | viability, T/C (second compound 0.0316 µM, first compound 0.3 µM): 73.4% | viability, T/C (second compound 0.0316 µM, first compound 0.949 µM): 63.6% | viability, T/C (second compound 0.0316 µM, first compound 3 µM): 55% | viability, T/C (second compound 0.1 µM, first compound 0.00949 µM): 94.6% | viability, T/C (second compound 0.1 µM, first compound 0.03 µM): 79.5% | viability, T/C (second compound 0.1 µM, first compound 0.0949 µM): 82.3% | viability, T/C (second compound 0.1 µM, first compound 0.3 µM): 68.5% | viability, T/C (second compound 0.1 µM, first compound 0.949 µM): 60.1% | viability, T/C (second compound 0.1 µM, first compound 3 µM): 60.1% | viability, T/C (second compound 0.316 µM, first compound 0.00949 µM): 82.9% | viability, T/C (second compound 0.316 µM, first compound 0.03 µM): 74.9% | viability, T/C (second compound 0.316 µM, first compound 0.0949 µM): 77.4% | viability, T/C (second compound 0.316 µM, first compound 0.3 µM): 67.6% | viability, T/C (second compound 0.316 µM, first compound 0.949 µM): 62.5% | viability, T/C (second compound 0.316 µM, first compound 3 µM): 52.9% | viability, T/C (second compound 1 µM, first compound 0.00949 µM): 82.7% | viability, T/C (second compound 1 µM, first compound 0.03 µM): 79.8% | viability, T/C (second compound 1 µM, first compound 0.0949 µM): 74.6% | viability, T/C (second compound 1 µM, first compound 0.3 µM): 73% | viability, T/C (second compound 1 µM, first compound 0.949 µM): 73.9% | viability, T/C (second compound 1 µM, first compound 3 µM): 57.6%

NC1CCC(NC2CC2c2ccccc2)CC1 (stereo unspecified) + CNC(C)C(=O)NC1CN(S(=O)(=O)c2cccc(S(=O)(=O)N3CCC4CCC(C(=O)NC(c5ccccc5)c5ccccc5)N4C(=O)C(NC(=O)C(C)NC)C3)c2)CCC2CCC(C(=O)NC(c3ccccc3)c3ccccc3)N2C1=O
IC50 [1]: > 100 nM | IC50 [2]: > 100 nM | IC50 [3]: > 100 nM | IC50 [4]: > 100 nM | IC50 [5]: > 100 nM | IC50 [6]: > 100 nM | viability, T/C (second compound 0.00316 µM, first compound 0.000316 µM): 86% | viability, T/C (second compound 0.00316 µM, first compound 0.001 µM): 98.8% | viability, T/C (second compound 0.00316 µM, first compound 0.00316 µM): 95.5% | viability, T/C (second compound 0.00316 µM, first compound 0.01 µM): 92.6% | viability, T/C (second compound 0.00316 µM, first compound 0.0316 µM): 91.1% | viability, T/C (second compound 0.00316 µM, first compound 0.1 µM): 82.1% | viability, T/C (second compound 0.01 µM, first compound 0.000316 µM): 94% | viability, T/C (second compound 0.01 µM, first compound 0.001 µM): 85.2% | viability, T/C (second compound 0.01 µM, first compound 0.00316 µM): 77.6% | viability, T/C (second compound 0.01 µM, first compound 0.01 µM): 93% | viability, T/C (second compound 0.01 µM, first compound 0.0316 µM): 91.4% | viability, T/C (second compound 0.01 µM, first compound 0.1 µM): 82.3% | viability, T/C (second compound 0.0316 µM, first compound 0.000316 µM): 98.1% | viability, T/C (second compound 0.0316 µM, first compound 0.001 µM): 93.4% | viability, T/C (second compound 0.0316 µM, first compound 0.00316 µM): 80% | viability, T/C (second compound 0.0316 µM, first compound 0.01 µM): 93.1% | viability, T/C (second compound 0.0316 µM, first compound 0.0316 µM): 87.8% | viability, T/C (second compound 0.0316 µM, first compound 0.1 µM): 88.8% | viability, T/C (second compound 0.1 µM, first compound 0.000316 µM): 91.4% | viability, T/C (second compound 0.1 µM, first compound 0.001 µM): 80.8% | viability, T/C (second compound 0.1 µM, first compound 0.00316 µM): 68.5% | viability, T/C (second compound 0.1 µM, first compound 0.01 µM): 86.1% | viability, T/C (second compound 0.1 µM, first compound 0.0316 µM): 89.6% | viability, T/C (second compound 0.1 µM, first compound 0.1 µM): 66.3% | viability, T/C (second compound 0.316 µM, first compound 0.000316 µM): 83.8% | viability, T/C (second compound 0.316 µM, first compound 0.001 µM): 89.7% | viability, T/C (second compound 0.316 µM, first compound 0.00316 µM): 84.4% | viability, T/C (second compound 0.316 µM, first compound 0.01 µM): 89% | viability, T/C (second compound 0.316 µM, first compound 0.0316 µM): 71% | viability, T/C (second compound 0.316 µM, first compound 0.1 µM): 79.7% | viability, T/C (second compound 1 µM, first compound 0.000316 µM): 90.1% | viability, T/C (second compound 1 µM, first compound 0.001 µM): 77.8% | viability, T/C (second compound 1 µM, first compound 0.00316 µM): 76.9% | viability, T/C (second compound 1 µM, first compound 0.01 µM): 96.5% | viability, T/C (second compound 1 µM, first compound 0.0316 µM): 92.2% | viability, T/C (second compound 1 µM, first compound 0.1 µM): 83.8%

Cn1ncnc1[C@H]1c2n[nH]c(=O)c3cc(F)cc(c23)N[C@@H]1c1ccc(F)cc1
viability, T/C (compound 0.000316 µM): 100% and 86% and 85.9% | viability, T/C (compound 0.001 µM): 117% and 105% and 93.7% | viability, T/C (compound 0.00316 µM): 108% and 97.1% and 83.8% | viability, T/C (compound 0.01 µM): 106% and 116% and 114% | viability, T/C (compound 0.0316 µM): 97.9% and 96.4% and 84.3% | viability, T/C (compound 0.1 µM): 95.5% and 85.7% and 96.4% | IC50 (curve of compound): > 100 nM
